Results: patent publication US20130101628A1 (NORTHWESTERN UNIVERSITY, priority 2011, published 2013)

Key:
[1] = biological target: T1, VEGF receptor 2 (VEGFR2 or KDR) (Homo sapiens, UniProt P35968); assay: Sandwich ELISA of phosphorylated VEGFR2 in lysates of stimulated HUVEC; type: cell-based
T1 construct: host or cells: HUVEC
Method: (§1) Human umbilical vein endothelial cells (HUVECs) and complete endothelial cell growth media (EGM) were purchased (Genlantis, San Diego, Calif.), passaged two times following receipt, and cryo-preserved in media with 5% DMSO. Cells were thawed as needed and grown to confluence in a […] flasks (VWR Falcon) prior to plating for experiments.
(§2) Phosphorylation of both VEGFRI and VEGFR2 was assayed using commercially available assay kit (R&D Systems, Minneapolis, Minn.) following the recommended protocol. First, confluent HUVECs plated in 24 well plates were starved for 5 hours in serum-free defined media (SFDM, Genlantis) specifically designed to maintain cells in a growth factor-free setting for growth factor signaling and metabolic assays. Following starvation, the various treatments were dissolved in SFDM to a concentration of 1 μM. […] Cells were exposed to treatment for 2 minutes. To evaluate the time-course of phosphorylation the same protocol was followed and cells were exposed to VEGF-PA for 0, 1, 3, 5, 10, 15, 20, 25, 30, 40, 50, and 60 minutes.

[2] = biological target: T2, VEGF receptor 1 (VEGFR1 or Flt-1) (Homo sapiens, UniProt P17948); assay: Sandwich ELISA of phosphorylated VEGFR1 in lysates of stimulated HUVEC; type: cell-based; details: HUVEC, native VEGF 100 ng/ml positive control, 2 minutes exposure
T2 construct: host or cells: HUVEC
Method: as §1, §2

T1 sequence (P35968 20-1356): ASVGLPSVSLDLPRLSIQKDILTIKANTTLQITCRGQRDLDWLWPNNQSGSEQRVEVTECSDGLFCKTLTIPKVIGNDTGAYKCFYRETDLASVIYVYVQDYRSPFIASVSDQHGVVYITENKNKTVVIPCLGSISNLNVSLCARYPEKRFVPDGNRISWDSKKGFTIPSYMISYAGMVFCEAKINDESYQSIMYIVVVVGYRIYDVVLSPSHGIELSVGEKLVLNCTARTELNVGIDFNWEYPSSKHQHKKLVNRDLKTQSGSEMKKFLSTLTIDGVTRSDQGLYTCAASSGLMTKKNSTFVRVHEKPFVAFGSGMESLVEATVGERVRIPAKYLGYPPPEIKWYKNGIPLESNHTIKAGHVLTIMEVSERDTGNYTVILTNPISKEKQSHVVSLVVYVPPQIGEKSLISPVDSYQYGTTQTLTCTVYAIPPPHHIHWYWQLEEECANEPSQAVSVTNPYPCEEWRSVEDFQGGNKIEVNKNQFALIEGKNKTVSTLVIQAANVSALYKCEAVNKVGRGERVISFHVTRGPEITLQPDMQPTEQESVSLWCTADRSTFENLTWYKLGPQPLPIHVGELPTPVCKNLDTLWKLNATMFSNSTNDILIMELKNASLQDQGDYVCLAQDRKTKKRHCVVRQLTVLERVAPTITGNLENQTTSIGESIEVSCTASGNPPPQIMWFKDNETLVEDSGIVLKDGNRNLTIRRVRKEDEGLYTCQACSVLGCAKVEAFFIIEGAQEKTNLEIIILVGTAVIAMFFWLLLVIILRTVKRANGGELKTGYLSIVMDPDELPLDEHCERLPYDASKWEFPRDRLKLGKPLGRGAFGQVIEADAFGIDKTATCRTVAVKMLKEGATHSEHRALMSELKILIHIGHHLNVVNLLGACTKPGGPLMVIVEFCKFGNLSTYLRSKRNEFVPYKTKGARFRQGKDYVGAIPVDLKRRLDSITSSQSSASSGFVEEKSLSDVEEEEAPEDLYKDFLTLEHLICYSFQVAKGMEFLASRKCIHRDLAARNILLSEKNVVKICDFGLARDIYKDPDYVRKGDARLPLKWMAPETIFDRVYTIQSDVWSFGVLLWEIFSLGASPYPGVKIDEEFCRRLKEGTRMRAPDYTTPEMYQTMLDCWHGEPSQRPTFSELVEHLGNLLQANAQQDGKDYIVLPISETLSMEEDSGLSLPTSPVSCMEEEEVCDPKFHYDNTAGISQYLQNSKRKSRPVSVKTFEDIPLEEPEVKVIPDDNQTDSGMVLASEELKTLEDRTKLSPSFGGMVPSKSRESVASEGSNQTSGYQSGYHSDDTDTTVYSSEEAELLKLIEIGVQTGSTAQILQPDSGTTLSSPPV
T2 sequence (P17948 27-1338): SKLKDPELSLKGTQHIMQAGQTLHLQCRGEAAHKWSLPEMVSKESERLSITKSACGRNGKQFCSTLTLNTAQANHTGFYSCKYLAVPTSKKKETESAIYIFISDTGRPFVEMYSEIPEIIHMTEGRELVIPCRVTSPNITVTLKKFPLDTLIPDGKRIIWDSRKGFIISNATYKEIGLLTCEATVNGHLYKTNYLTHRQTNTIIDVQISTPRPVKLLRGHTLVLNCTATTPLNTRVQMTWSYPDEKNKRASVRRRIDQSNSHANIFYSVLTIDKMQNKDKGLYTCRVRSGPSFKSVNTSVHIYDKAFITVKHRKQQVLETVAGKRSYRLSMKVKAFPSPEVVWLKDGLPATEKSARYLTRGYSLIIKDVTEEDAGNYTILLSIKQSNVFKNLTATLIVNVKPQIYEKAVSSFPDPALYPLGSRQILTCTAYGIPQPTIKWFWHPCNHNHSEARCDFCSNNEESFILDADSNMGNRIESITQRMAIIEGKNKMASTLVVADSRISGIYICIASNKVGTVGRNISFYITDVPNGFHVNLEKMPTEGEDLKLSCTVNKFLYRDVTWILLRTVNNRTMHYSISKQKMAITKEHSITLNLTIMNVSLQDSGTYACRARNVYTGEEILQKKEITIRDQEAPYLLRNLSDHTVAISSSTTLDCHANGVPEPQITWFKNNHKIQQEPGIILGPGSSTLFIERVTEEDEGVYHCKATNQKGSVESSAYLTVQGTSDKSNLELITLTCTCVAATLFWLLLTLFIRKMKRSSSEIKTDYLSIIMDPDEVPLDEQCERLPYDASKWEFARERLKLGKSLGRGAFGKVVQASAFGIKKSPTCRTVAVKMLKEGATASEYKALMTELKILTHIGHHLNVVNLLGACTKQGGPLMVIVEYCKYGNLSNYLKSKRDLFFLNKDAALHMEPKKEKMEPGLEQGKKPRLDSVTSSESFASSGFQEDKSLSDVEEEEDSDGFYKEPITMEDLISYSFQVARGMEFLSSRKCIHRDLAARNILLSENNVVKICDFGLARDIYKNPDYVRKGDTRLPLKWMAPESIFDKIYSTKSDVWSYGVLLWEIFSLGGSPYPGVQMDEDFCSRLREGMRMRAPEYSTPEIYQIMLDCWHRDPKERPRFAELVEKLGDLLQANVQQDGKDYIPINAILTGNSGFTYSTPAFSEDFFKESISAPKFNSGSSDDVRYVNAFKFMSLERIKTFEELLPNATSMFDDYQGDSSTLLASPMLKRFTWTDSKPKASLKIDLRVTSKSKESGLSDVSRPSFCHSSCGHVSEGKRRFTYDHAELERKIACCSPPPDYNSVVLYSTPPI

VEGF
VEGFR2 phosphorylation level relative to untreated control [1]: 1.311±0.106 | amount of phosphorylated VEGFR1, times untreated control [2]: 1.306±0.044
